Experimental findings from US20220054575A1, “PROTECTION AGAINST CORONAVIRUS INFECTION BY EXTRACTS AND EXTRACT COMPONENTS” (Natreon, Inc., priority 2020, published 2022) are described below.

A short description of the series: Solubility (description). The class given is physicochemical. The settings on record: for solubility in organic solvent: DMSO / DMF.

For `O=c1oc2cc(O)ccc2c2ccccc12` [3-hydroxy-6H-benzo[c]chromen-6-one], the “solubility in organic solvent” value is “soluble in DMSO and DMF”; the solubility in water entry is reported as “largely insoluble in water”.
On to `O=c1oc2cc(O)ccc2c2ccc(O)cc12` [3,8-dihydroxy-6H-benzo[c]chromen-6-one], for which the “solubility in organic solvent” value is “soluble in DMSO” and the solubility in water entry is reported as “largely insoluble in water”.
